Assays:
[1] = Hydrolysis of R848-Toco; format: physicochemical
Procedure: For hydrolysis, R848-Toco (0.1 mg) was dissolved in 1 mL of DMSO, and the solution was added into 9 mL of hydrolysis media (PBS or 0.5% (w/v) polysorbate 80/PBS). The solution was then rapidly mixed and filtered using a syringe filter (0.22 μm×13 mm, nylon). The filtrate was then incubated at 37° C. under agitation (250 rpm). At predetermined time points, 50 μL of the solution was sampled and analyzed immediately by HPLC.

[2] = In vitro release kinetics (dialysis method); format: physicochemical
Procedure: Solutions (1 mL) of free R848 in DMSO, R848/HA-Toco in water, R848-Toco in DMSO, and R848-Toco/HA-Toco in water, with a concentration of 1 mg/mL on R848 basis were dialyzed using SnakeSkin® dialysis tubing (MWCO […]) against 30 mL of phosphate buffered saline release medium (PBS, 10 mM sodium phosphate, 137 mM NaCl, pH 7.4) with 0.5% (w/v) polysorbate 80 at 37° C. At predetermined time points, 1 mL aliquots of release medium were sampled and replaced with an equal volume of fresh medium. The samples were kept frozen (−20° C.) until HPLC analysis.
Results: The in vitro release profiles of R848 and R848-Toco from the HA-Toco were studied using a dialysis method. […] The release of parent R848 formulated with HA-Toco was tested in PBS media, with free R848 dissolved in DMSO as a control. Similar release kinetics were observed whether R848 was formulated with HA-Toco or without ([…]), and in both conditions nearly 100% of the agonist was released over 24 h (FIG. 4A).

[3] = tested on: canine PBMCs; test: In vitro cytokine secretion assay in canine PBMCs (Example 3); format: cell-based; conditions: 15 hours, ELISA
From the text: As a TLR7/8 agonist, R848 binds to endosomal TLR7 and 8 receptors located on antigen presenting cells (APCs). The activation of APCs produces pro-inflammatory cytokines including TNF-α, type I IFN and IL-12. These cytokines, together with stimulated APCs that take up tumor antigens, enhance the activation of anti-tumor Th-1 immune responses that involve both CD4^+ T helper cells and CD8^+ cytotoxic T cells.^16 To evaluate the Th-1 associated cytokine production in vitro, isolated canine PBMCs were treated with R848, formulated or unformulated R848-Toco, and the secretion of TNF-α and IL-12 were measured by ELISA as markers of generalized inflammatory response. Canines were chosen as a model over mice because of the greater genetic similarity to humans and more similar immune systems.^46 Peripheral blood from healthy canine donors of 7-10 years age (similar to the age of typical canines with cancer^14) was obtained with appropriate informed consent of the owner. Blood (8 mL per tube) was drawn via sterile venipuncture into a BD Vacutainer cell preparation tube containing sodium heparin (BD Biosciences). PBMCs were isolated within one hour following procurement by density gradient centrifugation according to the manufacturer protocol and resuspended to 3×10^6 cells/mL in sterile RPMI 1640 medium with L-glutamine (Gibco) supplemented with 100 IU/mL penicillin, 100 μg/mL streptomycin (Corning) and 10% (v/v) heat-inactivated Fetalgro (RMBIO). Corning 3917, 96-well tissue culture treated plates were seeded with the PBMC suspension (180 μL/well), 20 μL of the serially diluted R848 samples were added in triplicate and HA-Toco vehicle in duplicate to yield the desired concentrations in a 1% (v/v) DMSO cell suspension. […] Sample cytokine concentrations were determined by interpolation of a four-parameter logistic curve of the recombinant standards using GraphPad Prism 6. […] Cytokine secretion levels were measured by ELISA (Duoset, R&D Systems, Minneapolis, MN, USA) according to the manufacturer protocol.

[4] = Solubility in water (in words); format: physicochemical
[5] = target: T1, human TLR7 (hTLR7) (Homo sapiens, UniProt Q9NYK1); test: In vitro TLR7 activity assay (HEK-Blue hTLR7, QUANTI-Blue, Example 3); format: cell-based; conditions: 16 h incubation; Null 1-k subtracted
T1 construct: host or cells: HEK-293 (HEK-Blue hTLR7)
T1 sequence (Q9NYK1 27-1049): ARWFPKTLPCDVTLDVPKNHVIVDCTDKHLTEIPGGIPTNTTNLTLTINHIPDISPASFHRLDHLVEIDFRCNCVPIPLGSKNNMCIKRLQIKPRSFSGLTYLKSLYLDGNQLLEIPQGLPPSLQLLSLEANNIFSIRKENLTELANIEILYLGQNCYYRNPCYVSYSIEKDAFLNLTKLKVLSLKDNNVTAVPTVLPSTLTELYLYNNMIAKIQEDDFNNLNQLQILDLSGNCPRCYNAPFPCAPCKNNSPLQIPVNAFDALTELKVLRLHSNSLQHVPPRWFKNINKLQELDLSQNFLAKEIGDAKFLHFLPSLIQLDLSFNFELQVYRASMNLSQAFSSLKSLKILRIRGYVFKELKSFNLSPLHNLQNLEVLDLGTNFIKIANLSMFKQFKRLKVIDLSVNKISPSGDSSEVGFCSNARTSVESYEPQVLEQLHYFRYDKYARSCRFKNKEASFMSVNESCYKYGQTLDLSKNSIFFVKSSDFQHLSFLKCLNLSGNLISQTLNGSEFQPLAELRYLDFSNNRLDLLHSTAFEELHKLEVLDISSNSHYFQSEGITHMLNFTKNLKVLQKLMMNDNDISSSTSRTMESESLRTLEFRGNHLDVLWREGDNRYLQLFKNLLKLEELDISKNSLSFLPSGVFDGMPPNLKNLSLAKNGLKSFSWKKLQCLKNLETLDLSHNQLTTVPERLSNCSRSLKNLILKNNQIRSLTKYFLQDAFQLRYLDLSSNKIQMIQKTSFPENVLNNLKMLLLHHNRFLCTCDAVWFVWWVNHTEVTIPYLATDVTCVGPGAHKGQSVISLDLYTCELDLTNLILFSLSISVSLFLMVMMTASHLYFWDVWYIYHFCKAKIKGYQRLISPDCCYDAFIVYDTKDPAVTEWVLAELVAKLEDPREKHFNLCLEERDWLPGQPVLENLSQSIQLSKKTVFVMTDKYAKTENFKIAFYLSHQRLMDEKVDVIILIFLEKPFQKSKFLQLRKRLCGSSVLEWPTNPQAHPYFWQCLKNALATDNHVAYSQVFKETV
Procedure: TLR agonist activity was measured in a dose-response study using reporter cell lines expressing the human TLR7 (hTLR7). […] The hTLR7 activity of R848-Toco, the formulation and its components were assessed using HEK-293 cells co-transfected with the hTLR7 gene and an inducible SEAP reporter gene along with the corresponding null control line (HEK-Blue™ hTLR7 and Null-1k cells, Invivogen). Cells were maintained in DMEM media with selective antibiotics according to the manufacturer protocol.^26 HEK-Blue™ cells were seeded into 96 well plates at a density of 220,000 cells/mL with 180 μL/well of culture medium. Stock solutions in DMSO were first serially diluted to seven concentrations (DMSO solutions further diluted into H2O). Each well was stimulated with 20 μL of agonists or agonist-free controls (equivalent concentration of HA-Toco, D-α-Tocopherol succinate, PBS or […] DMSO) at the determined final concentrations in 5 replicates. After 16 h of incubation at 37° C. in a 5% CO2 atmosphere, 20 μL of the supernatant from each well was sampled and spiked into 180 μL of QUANTI-Blue™ solution followed by incubation for 1 h at 37° C. Relative hTLR7 activity was then analyzed by UV-Vis at 637 nm using a microplate UV reader (SpectraMAX GeminiXS, Molecular Devices, San Jose, CA, USA). For each compound and concentration, a corresponding sample was applied to the HEK-Blue™ Null-1k cell line. The TLR7 agonist activity was determined after averaging across hTLR7 replications and subtracting the averaged Null response.
Activation levels were calculated as the difference between the average readings of the hTLR7 cell line and the Null 1-k cell line, to account for non-hTLR7 related induction of NF-κB. […] Therefore, this study confirmed that R848-Toco, formulated with HA-Toco as an emulsion, maintained its TLR agonist activity. […]

[6] = tested on: mast cell tumors; conditions: 86 canine patients (7 complete response and 25 partial response); cited from earlier work

CCOCc1nc2c(N)nc3ccccc3c2n1CC(C)(C)OC(=O)CCC(=O)Oc1c(C)c(C)c2c(c1C)CC[C@@](C)(CCC[C@H](C)CCC[C@H](C)CCCC(C)C)O2 [Compound R848-Toco]
hydrolyzed products observed by HPLC ([1]; hydrolysis sample at 8 h): R848, which was the only observed hydrolyzed product
R848-Toco hydrolyzed to R848 ([1]; initial 8 h, 37° C.): 72%
released over the first 24 h ([2]; 0.5% w/v polysorbate 80 solution of PBS): 76%
release profile (in words) ([2]; PBS, pH 7.4): burst release within the first half hour
IL-12 levels [3]: lower expression
solubility in water [4]: poorly soluble in water
hTLR7 activation (NF-κB, in words) [5]: much less active

Cc1c(C)c2c(c(C)c1OC(=O)CCC(=O)O)CC[C@@](C)(CCC[C@H](C)CCC[C@H](C)CCCC(C)C)O2 [Toco-succinate, (+)-α-tocopherol succinate]
hTLR7 activation (NF-κB, in words) [5]: did not induce any significant activation

Cc1[nH]c(/C=C2\C(=O)Nc3ccc(F)cc32)c(C)c1C(=O)NCCN1CCCC1.O=P(O)(O)O [toceranib phosphate]
response rate [6]: 37.2%
